13 compounds from ChEMBL document CHEMBL1201862, “PubChem BioAssay data set” (2004) can be followed below.

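In this assay, cells in 96-well plates receive the compound at five concentrations for 48 hours. Endpoints are linearly interpolated between the surrounding concentrations. The concentration for 50% growth inhibition is given as GI50.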 Activity calls are given as the source filed them. Rule as the data show it: active = GI50 up to about 1.1 µM and inactive = higher.

Common to all, as to assay: inhibition of tumour cell growth, NCI panel, 48 h
Assay [1] deals with K562.
In assay [2] the test system is NCI-H460.
Assay [3] deals with COLO 205.
For assay [4], the system named is HOP-62.
For assay [5], the system named is A549.
Assay [6] deals with SF-295.
Assay [7] has as its system OVCAR-3.
In assay [8] the test system is NCI-H23.
For assay [9], the system named is HCT-116.
Assay [10] has as its system OVCAR-4.
Assay [11] concerns UACC-62.
For assay [12], the system named is SK-OV-3.
Assay [13] relates to CAKI-1.
Assay [14] has as its system HCT-15.
For assay [15], the system named is OVCAR-8.
Assay [16] has as its system RXF 393.
The test system of assay [17] is ACHN.
Assay [18] concerns SR.

With `O=C1OC(O)c2cc3c(cc21)OCO3` (stereo unspecified), the GI50 in [1], in [2], in assay [3], in assay [4], in assay [5] and in assay [6] was > 100 µM (inactive) each time. The GI50 in [7], in assay [8], in assay [9], in assay [10], in assay [11] and in [12] was > 100 µM (inactive) in each case. Also, the GI50 was > 100 µM (inactive) in assay [13], greater than 100 µM in assay [14], > 100 µM (inactive) in assay [15] and > 100 µM (inactive) in [16].
As to `CC1=C(C)C(=O)c2c(cc3c4ccccc4ccn23)C1=O`, the GI50 in assay [1], in assay [2], in assay [3], in [4], in [5] and in assay [17] was > 100 µM (inactive) throughout. Further, the GI50 in assay [6] was > 100 µM (inactive); in [7], > 100 µM (inactive); in assay [8] it was > 100 µM (inactive); in [9], > 10 µM (inactive); in [11], > 100 µM (inactive); in assay [12] it was > 100 µM (inactive). The GI50 is greater than 100 µM in [14], > 100 µM (inactive) in assay [15] and > 100 µM (inactive) in [16].
Take `CCOC(=O)c1cc2c3c(c(O)c(OC)c2s1)N(C(=O)c1cc2c4c(c(O)c(OC)c2s1)N(C(C)=O)CC4)CC3`: the GI50 in assay [1] was > 100 µM (inactive); in [2] it was > 100 µM (inactive); in [3], > 100 µM (inactive); in assay [4], 35.6 µM (inactive); in [5], > 100 µM (inactive); in [17], 77.3 µM (inactive). Further, the GI50 in [6] was 54.3 µM (inactive); in assay [7], 24.4 µM (inactive); in [8], > 100 µM (inactive); in assay [9], > 100 µM (inactive); in assay [10] it was 71.6 µM (inactive); in [11] it was 98.6 µM (inactive). Besides, the GI50 in assay [12] is 22 µM (inactive); in assay [13], > 100 µM (inactive); in assay [15], 72.8 µM (inactive); in assay [16], 54.1 µM (inactive).
For the compound `O=C1C2=C(c3ccccc31)C(c1ccccc1Cl)N1C(=O)CCSC1=N2` (stereo unspecified), the GI50 in assay [1], in assay [3], in [4], in assay [5], in [17] and in assay [6] was > 100 µM (inactive) throughout. The GI50 is > 100 µM (inactive) in [7]; 76 µM (inactive) in assay [8]; > 100 µM (inactive) in [9]; 45.4 µM (inactive) in assay [10]; 76.7 µM (inactive) in assay [11]; > 100 µM (inactive) in assay [12]. The GI50 in assay [13] was > 100 µM (inactive); in assay [14] it was greater than 100 µM; in [15], > 100 µM (inactive).
In the case of `COC1CCC(=C2C(=O)OC(C)(C)OC2=O)N1` (stereo unspecified), the GI50 in [1], in assay [2], in [3], in assay [4], in [5] and in assay [17] was > 100 µM (inactive) throughout. Besides, the GI50 in assay [6], in assay [8], in [9], in assay [10], in [11] and in assay [12] was > 100 µM (inactive) in each case. Also, the GI50 in assay [13] was > 100 µM (inactive); in [14] it was greater than 100 µM; in assay [15] it was > 100 µM (inactive); in [16], > 100 µM (inactive).
Take `C=CCSc1ncnc2c1ncn2C1OC(CO)C(O)C1O` (stereo unspecified): the GI50 in [1] was 5.35 µM (inactive); in [18], > 100 µM (inactive); in assay [2], 38.9 µM (inactive); in [3], 41.2 µM (inactive); in assay [4] it was 35.1 µM (inactive); in assay [5], > 100 µM (inactive). The GI50 in assay [17] was 20.1 µM (inactive); in assay [6] it was 87.5 µM (inactive); in assay [7], 11.4 µM (inactive); in [8] it was 18.2 µM (inactive); in [9] it was 20.5 µM (inactive); in [10], > 100 µM (inactive). The GI50 was > 100 µM (inactive) in assay [11]; 30.5 µM (inactive) in assay [12]; 17.7 µM (inactive) in [13]; 7.94 µM in assay [14]; 3.85 µM (inactive) in assay [15].
Consider `CCN(CC)c1ccc(Cl)c2c1C(O)(C(C)C)C2(C)C` (stereo unspecified), for which the GI50 in [1] was 19 µM (inactive); in assay [2] it was 13.4 µM (inactive); in assay [3] it was 15.2 µM (inactive); in [4], 23.7 µM (inactive); in assay [5], 19.9 µM (inactive); in assay [17], 17.4 µM (inactive). The GI50 in assay [6] is 18.9 µM (inactive); in assay [7], 12.6 µM (inactive); in [8], 15 µM (inactive); in assay [9] it was 14.1 µM (inactive); in assay [10], 19 µM (inactive); in assay [12], 15.6 µM (inactive). Moreover, the GI50 in assay [13] is 20 µM (inactive); in [14] it was 14.5 µM; in [15] it was 18.9 µM (inactive); in [16], 16 µM (inactive).
As to `Cc1c(C(=O)/C=C/C=C/c2ccccc2)[n+]([O-])c2ccccc2[n+]1[O-]`, the GI50 in assay [1] was 31.8 µM (inactive); in assay [2], 18.8 µM (inactive); in assay [3], 35 µM (inactive); in assay [4] it was 25.3 µM (inactive); in assay [5], 22.9 µM (inactive); in assay [17] it was 25.7 µM (inactive). Further, the GI50 in assay [6] is 29.2 µM (inactive); in assay [7], 26.1 µM (inactive); in assay [8], 17.5 µM (inactive); in [10] it was 31.2 µM (inactive); in assay [11], 16 µM (inactive); in assay [12], 40.5 µM (inactive). The GI50 was 51.8 µM (inactive) in assay [13], 15.2 µM in assay [14] and 42.8 µM (inactive) in assay [15].
Regarding `COc1cc(OC)c2c(=O)c3cccc([N+](=O)[O-])c3n(C)c2c1`, the GI50 is > 100 µM (inactive) in assay [1]; > 100 µM (inactive) in assay [3]; > 100 µM (inactive) in assay [5]; > 100 µM (inactive) in assay [6]; 77.8 µM (inactive) in assay [8]; > 100 µM (inactive) in assay [10]. The GI50 in assay [11] is > 100 µM (inactive); in assay [12] it was > 100 µM (inactive); in assay [13], > 100 µM (inactive); in [14], greater than 100 µM; in [15], > 100 µM (inactive); in assay [16] it was > 100 µM (inactive).
Take `[O-][S+](Cc1ccccc1)c1nc2ccccc2nc1-c1cccs1` (stereo unspecified): the GI50 in assay [1] was 5.38 µM (inactive); in assay [2] it was 20 µM (inactive); in assay [3], 20 µM (inactive); in [4] it was 19.2 µM (inactive); in [5], 15.2 µM (inactive); in assay [17], 13.9 µM (inactive). Also, the GI50 in [6] is 24.7 µM (inactive); in assay [7] it was 11.2 µM (inactive); in assay [8], 13.8 µM (inactive); in [9] it was 10.4 µM (inactive); in assay [10], 5.78 µM (inactive); in assay [12] it was 29 µM (inactive). Moreover, the GI50 in [14] is 9.29 µM; in assay [15], 13.7 µM (inactive).
Take `Cc1ccc2c(c1)-c1c3c(nn1C)-c1ccccc1SC3O2` (stereo unspecified): the GI50 was 35.1 µM (inactive) in assay [1]; 65.8 µM (inactive) in [2]; 75.5 µM (inactive) in assay [3]; > 100 µM (inactive) in [4]; 50 µM (inactive) in assay [5]; 54.1 µM (inactive) in assay [17]. Moreover, the GI50 in assay [6] is 83.8 µM (inactive); in assay [7], 85.9 µM (inactive); in assay [8], > 100 µM (inactive); in assay [9], 33.7 µM (inactive); in assay [12], > 100 µM (inactive); in [15], 39.6 µM (inactive). In addition, in [16], the GI50 was > 100 µM (inactive).
As to `CC(C)(C)C1=CC(=C(P(=O)(O)O)P(=O)(O)O)C=C(C(C)(C)C)C1=O`, the GI50 in [1], in assay [2], in assay [4], in assay [5], in assay [17] and in assay [6] was > 50 µM (inactive) each time. For the same compound, the GI50 in [7], in assay [8], in assay [9], in assay [10], in assay [11] and in [12] was > 50 µM (inactive) throughout. Also, the GI50 in assay [13] is > 50 µM (inactive); in assay [14], greater than 50 µM; in [15], > 50 µM (inactive).
Take `CC/C(=C(\c1ccccc1)c1ccc(OCC[N+](C)(C)C)cc1)c1ccccc1` [TAMOXIFEN METHYL IODIDE]: the GI50 was 5.65 µM (inactive) in assay [1]; 17.1 µM (inactive) in assay [2]; 5.31 µM (inactive) in assay [3]; 32.4 µM (inactive) in assay [4]; 18.7 µM (inactive) in assay [5]; 17.5 µM (inactive) in [17]. Also, the GI50 in assay [6] is 16.9 µM (inactive); in [7], 4.76 µM (inactive); in assay [9] it was 17.5 µM (inactive); in assay [10], 13 µM (inactive); in assay [11] it was 11 µM (inactive); in assay [12] it was 17.5 µM (inactive). Also, the GI50 in [13] is 17.5 µM (inactive); in [14], 17.7 µM; in assay [15], 15.3 µM (inactive); in assay [16] it was 17.1 µM (inactive).
